The source made the active and inactive calls. No cut-off for these calls is given here.
What was measured:
[1] = target: T1, DNA topoisomerase 1 (Homo sapiens) (UniProt P11387); test: Inhibition of recombinant human topoisomerase 1 assessed as supercoiled pBR322 DNA at 12.5 uM incubated for 1 hr by ethidium bromide staining based agarose gel electrophoresis method relative to control; set-up: scale not given: the % may be the effect or the level left
T1 sequence (whole entry): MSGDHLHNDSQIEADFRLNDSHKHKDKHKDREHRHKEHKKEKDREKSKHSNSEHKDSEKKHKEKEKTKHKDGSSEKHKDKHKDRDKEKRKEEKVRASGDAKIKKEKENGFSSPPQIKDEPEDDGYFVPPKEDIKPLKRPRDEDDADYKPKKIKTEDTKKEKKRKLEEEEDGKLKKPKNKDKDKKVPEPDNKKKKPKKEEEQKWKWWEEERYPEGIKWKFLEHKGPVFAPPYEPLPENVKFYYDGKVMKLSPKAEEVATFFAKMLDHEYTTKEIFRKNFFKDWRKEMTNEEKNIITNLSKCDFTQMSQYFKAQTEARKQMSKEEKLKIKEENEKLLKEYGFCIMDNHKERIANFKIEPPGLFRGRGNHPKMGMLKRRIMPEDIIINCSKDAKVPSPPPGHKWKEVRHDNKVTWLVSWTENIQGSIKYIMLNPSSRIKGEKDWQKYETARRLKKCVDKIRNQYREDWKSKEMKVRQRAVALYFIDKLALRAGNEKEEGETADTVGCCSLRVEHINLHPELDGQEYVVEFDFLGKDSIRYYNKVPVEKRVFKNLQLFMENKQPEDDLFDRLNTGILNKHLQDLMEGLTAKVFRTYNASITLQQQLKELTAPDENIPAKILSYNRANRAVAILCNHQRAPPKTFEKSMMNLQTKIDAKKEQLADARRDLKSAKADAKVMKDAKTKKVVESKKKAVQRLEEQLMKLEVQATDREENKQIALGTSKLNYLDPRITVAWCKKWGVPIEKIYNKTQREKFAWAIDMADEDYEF

[2] = target: DNA topoisomerase II (Homo sapiens) (UniProt P11388+Q02880); test: Inhibition of recombinant human topoisomerase 2 assessed as supercoiled DNA at 25 uM incubated for 1 hr by ethidium bromide staining based agarose gel electrophoresis method relative to control; type: protein assay; set-up: scale not given: the % may be the effect or the level left
DNA = test: Induction of Escherichia coli plasmid pBR322 DNA cleavage assessed as linear form at 50 uM irradiated with light and incubated for 1 hr by agarose gel electrophoresis; type: nucleic-acid assay

Activity [1] [%] | Activity [2] [%] | Activity (DNA) | Structure (SMILES)
64.2 | 81.8 |  | CC1=CC(/C=C/c2ccc(OCCCc3ccc[n+](C)c3)c(OCCCc3ccc[n+](C)c3)c2)=[N+]2C1=C(c1ccc(OCCCc3ccc[n+](C)c3)c(OCCCc3ccc[n+](C)c3)c1)c1c(C)cc(/C=C/c3ccc(OCCCc4ccc[n+](C)c4)c(OCCCc4ccc[n+](C)c4)c3)n1[B-]2(F)F.[I-].[I-].[I-].[I-].[I-].[I-]
 |  | inactive | CC1=CC(/C=C/c2ccc(OCCCc3ccc[n+](C)c3)cc2)=[N+]2C1=C(c1ccc(OCCCc3ccc[n+](C)c3)cc1)c1c(C)cc(/C=C/c3ccc(OCCCc4ccc[n+](C)c4)cc3)n1[B-]2(F)F.[I-].[I-].[I-]

Source: ChEMBL document CHEMBL4406848, “Novel water soluble BODIPY compounds: Synthesis, photochemical, DNA interaction, topoisomerases inhibition and photodynamic activity properties” (Eur J Med Chem, 2019)
